Our source for the IC50 values is ChEMBL document CHEMBL3638605, “N-hydroxy-benzamids for the treatment of cancer” (2014).

The structures appear in SMILES notation.

This assay addresses T1, Histone deacetylase 8 (Homo sapiens, UniProt Q9BY41).
T1 sequence (Q9BY41 whole entry): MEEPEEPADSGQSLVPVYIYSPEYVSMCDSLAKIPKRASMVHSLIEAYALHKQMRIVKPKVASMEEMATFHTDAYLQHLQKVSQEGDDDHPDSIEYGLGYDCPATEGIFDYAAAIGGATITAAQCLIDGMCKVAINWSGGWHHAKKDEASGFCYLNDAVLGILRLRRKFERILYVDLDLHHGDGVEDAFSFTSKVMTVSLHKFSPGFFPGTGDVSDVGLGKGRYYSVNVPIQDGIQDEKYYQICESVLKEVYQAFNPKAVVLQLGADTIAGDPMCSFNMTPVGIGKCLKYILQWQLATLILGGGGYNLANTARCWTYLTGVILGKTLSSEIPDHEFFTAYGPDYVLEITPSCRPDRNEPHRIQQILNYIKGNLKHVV
Description: Fluorometric Assay: Compounds were tested for their ability to inhibit histone deacetylase 8 using an in vitro deacetylation assay. In a detailed procedure, 8 μl of HDAC8 enzyme solution (0.125 μg/μl) was transferred to assay plates (CORNING 3676). 1 μl of half-log diluted compounds were added into wells and incubated for 15 min at rt. After that, 8 μl of substrate solution was transferred to the wells and incubated for 30 min at rt. After deacetylation of the substrate by incubation with HDAC8 enzyme, subsequent exposure to a developing reagent produced a fluorophore that was directly proportional to the level of deacetylation. So 4 μl of developer regent (Cayman 10006394) was added into the wells in the assay plates and incubated for 15 min. The fluorescence signal was measured by a FlexStation3 plate reader (excitation wave length 340-360 nm; emission wave length 440-465 nm).

The molecule `O=C(NO)c1ccc2c(c1)CC(Nc1nccc(-c3cccnc3)n1)CN2` (stereo unspecified) had an IC50 of 470 nM.
